{"source": "patent US5597845A", "about": "“Substituted alkyldiamine derivatives” (Merrell Pharmaceuticals Inc., priority 1994, dated 1997)", "key": {"[1]": {"biological_target": "T1, NK1 receptor (Cavia porcellus, UniProt P30547)", "T1 construct": "evaluated in guinea pig lungs; tissue Keystone Biologicals, Cleveland, Ohio; host or cells: guinea pig lung", "T1 sequence (P30547 whole entry)": "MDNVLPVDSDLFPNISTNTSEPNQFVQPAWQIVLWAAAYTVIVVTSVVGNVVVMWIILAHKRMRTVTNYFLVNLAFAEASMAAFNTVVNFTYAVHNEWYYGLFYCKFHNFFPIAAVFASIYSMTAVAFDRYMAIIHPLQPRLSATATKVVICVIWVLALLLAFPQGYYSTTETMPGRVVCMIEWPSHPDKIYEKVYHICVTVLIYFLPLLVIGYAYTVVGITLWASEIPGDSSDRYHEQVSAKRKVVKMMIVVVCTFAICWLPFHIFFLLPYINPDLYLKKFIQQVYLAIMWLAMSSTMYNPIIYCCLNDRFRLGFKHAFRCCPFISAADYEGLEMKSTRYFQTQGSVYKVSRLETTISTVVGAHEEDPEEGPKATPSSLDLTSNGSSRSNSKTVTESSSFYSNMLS", "assay": "Antagonism of iodinated tachykinin binding: NK1 receptor affinity in guinea pig lungs (125I-Bolton Hunter Lys-3 labeled substance P)", "details": "125I-substance P 0.1 nM, 90 min room temperature, mean of several experiments", "method": "(§1) The NK1 receptor affinity of proposed tachykinin antagonists was evaluated in guinea pig lungs (Keystone Biologicals, Cleveland, Ohio) and affinity for the NK2 receptor evaluated in HSKR-1 cells (which are mouse 3T3 fibroblasts expressing the human jejunal NK2 receptor). Tissues or cells were homogenized with a Polytron in 15 volumes of 50 mM Tris-HCl buffer (pH 7.4, 4° C.) and centrifuged. The pellet was resuspended in Tris-HCl buffer and was centrifuged; the pellet was washed twice by resuspension. The final pellet was resuspended at a concentration of 40 mg/ml for tissues and 20 mg/ml for cells in incubation buffer and remained at room temperature for at least 15 min prior to use. Receptor binding was initiated by addition of 250 ul membrane preparation in duplicate to 0.1 nM of the following radioligands: ^125 I-Bolton Hunter Lys-3 labeled substance P and ^125 iodohistidyl-1-neurokinin A; in a final volume of 500 ul of buffer containing 50 mM Tris-HCl (pH 7.4 at room temperature), 0.1% bovine serum albumin, 2 mM MnCl2, 40 ug/ml bacitracin, 4 μg/ml leupeptin and chymostatin, 1 μM thiorphan and various doses of the putative tachykinin antagonists. Incubations were performed at room temperature for 90 min (NK1 receptor assays) or 2 hr (NK2 receptor assay); binding was terminated by addition of 50 mM Tris-HCl buffer (pH 7.4, 4° C.) and filtration under vacuum through GF/B filters presoaked with 0.1% polyethyleneimine (NK, receptor assays) or 0.5% bovine serum albumin (NK2 receptor assay). Filter bound radioactivity was quantitated in a gamma counter. Nonspecific binding was defined as binding in the presence of 1 μM substance P or neurokinin A. Specific binding was calculated by subtracting nonspecific binding from total binding. Competition of iodinated SP or NKA binding by test compounds or standards was expressed as a percentage of this maximum competition. IC50 values (concentration required to inhibit 50% of receptor binding) were generated for each of the test compounds by nonlinear regression using an iterative curve fitting program (GraphPAD Inplot, San Diego, Calif.).\n(§2) IC50 values for some of the compounds of the present invention are found in Table 1 and represent the mean of several experiments."}, "[2]": {"biological_target": "T2, NK1 receptor (Homo sapiens, UniProt P25103)", "T2 construct": "Receptor source for NK1 receptor is UCll cells; endogenous in cells; host or cells: UC11 cells (printed UCll)", "T2 sequence (P25103 whole entry)": "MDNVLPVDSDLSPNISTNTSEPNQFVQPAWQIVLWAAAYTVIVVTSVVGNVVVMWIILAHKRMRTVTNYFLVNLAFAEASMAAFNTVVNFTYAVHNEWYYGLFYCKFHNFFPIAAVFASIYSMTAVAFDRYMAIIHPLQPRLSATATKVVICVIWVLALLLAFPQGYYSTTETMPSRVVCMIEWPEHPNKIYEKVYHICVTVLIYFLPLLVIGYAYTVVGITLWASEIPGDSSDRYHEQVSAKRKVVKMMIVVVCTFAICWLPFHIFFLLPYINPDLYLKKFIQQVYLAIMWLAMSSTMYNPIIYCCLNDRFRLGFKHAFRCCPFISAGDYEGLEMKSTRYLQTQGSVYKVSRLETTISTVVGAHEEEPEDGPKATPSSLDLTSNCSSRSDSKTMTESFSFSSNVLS", "assay": "Antagonism of tachykinin (SP)-induced phosphatidylinositol (PI) turnover in vitro, UCll cells", "format": "cell-based", "details": "SP agonist, 3 experiments", "method": "(§3) Tachykinin-mediated phosphatidylinositol (PI, inositol phosphate) accumulation was measured in UCll or SKLKB82#3 cells in the presence and absence of NK1 or NK2 receptor antagonists, respectively. Tissues were incubated in Krebs-Henseleit buffer at 37° C. with 95% O2 --5% CO2 gassing. Tissues were then incubated with fresh buffer containing 100 μCi of myo-[2-^3 H(N)] inositol at 37° C. for 60 min with gentle gassing. After washing twice in 5 ml room temperature buffer containing 10 mM LiCl, tissues were incubated for 30 min at room temperature with a buffer change at 15 min. […] The third elution was collected and 1 ml counted in 7 ml scintillation fluid. A 50 μl aliquot of the organic (bottom) phase was removed, dried in a scintillation vial and counted in 7 ml scintillation fluid.\n(§4) The ratio of DPM in the aqueous phase aliquot (total inositol phosphates) to the DPM in the 50 μl organic phase aliquot (total [^3 H]inositol incorporated) was calculated for each sample. Data are expressed as a percent of agonist-induced accumulation of [^3 H]-inositol phosphates over basal levels. […] Dose-response graphs are constructed and the ability of the test compounds to inhibit tachykinin-induced phosphatidyinositol turnover determined with the aid of a computer program. […]"}, "[3]": {"biological_target": "T3, NK2 receptor (Bos taurus, UniProt P05363)", "T3 construct": "expressed in transfected cells; host or cells: SKLKB82#3 cells (murine B82 fibroblasts, own knowledge)", "T3 sequence (P05363 1-384)": "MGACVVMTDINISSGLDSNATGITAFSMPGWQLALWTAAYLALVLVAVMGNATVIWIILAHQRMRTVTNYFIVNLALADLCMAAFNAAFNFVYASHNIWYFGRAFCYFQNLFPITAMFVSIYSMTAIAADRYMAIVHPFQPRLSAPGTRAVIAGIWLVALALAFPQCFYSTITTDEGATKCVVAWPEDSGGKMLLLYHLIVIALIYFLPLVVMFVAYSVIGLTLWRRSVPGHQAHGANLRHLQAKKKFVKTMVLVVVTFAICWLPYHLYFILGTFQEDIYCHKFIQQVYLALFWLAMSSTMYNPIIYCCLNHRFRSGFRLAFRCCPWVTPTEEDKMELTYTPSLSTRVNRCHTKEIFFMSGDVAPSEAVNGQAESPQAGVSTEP", "assay": "Antagonism of tachykinin (NKA)-induced phosphatidylinositol (PI) turnover in vitro, SKLKB82#3 cells", "format": "cell-based", "details": "NKA agonist, 3 experiments", "method": "as §3, §4"}, "[4]": {"biological_target": "T4, human jejunal NK2 receptor (Homo sapiens, UniProt P21452)", "T4 construct": "expressed in transfected cells; host or cells: HSKR-1 cells (mouse 3T3 fibroblasts)", "T4 sequence (P21452 1-398)": "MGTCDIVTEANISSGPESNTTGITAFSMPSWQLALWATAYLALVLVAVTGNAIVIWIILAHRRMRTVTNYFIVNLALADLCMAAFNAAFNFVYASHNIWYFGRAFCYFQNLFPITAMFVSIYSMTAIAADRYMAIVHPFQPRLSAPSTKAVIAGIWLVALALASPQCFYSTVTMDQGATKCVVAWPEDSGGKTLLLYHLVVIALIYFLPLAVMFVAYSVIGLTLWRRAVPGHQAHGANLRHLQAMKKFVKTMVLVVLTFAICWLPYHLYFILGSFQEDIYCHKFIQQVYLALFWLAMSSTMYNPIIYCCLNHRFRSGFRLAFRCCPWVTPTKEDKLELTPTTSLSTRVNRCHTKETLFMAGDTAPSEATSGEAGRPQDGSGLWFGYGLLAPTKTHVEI", "assay": "Antagonism of iodinated tachykinin binding: NK2 receptor affinity in HSKR-1 cells (125 iodohistidyl-1-neurokinin A)", "details": "HSKR-1 cells (mouse 3T3 fibroblasts expressing human jejunal NK2 receptor); 125I-neurokinin A 0.1 nM; 2 hr room temperature; mean of several experiments", "method": "as §1, §2"}, "[5]": {"system": "UCll or SKLKB82#3 cells", "assay": "Phosphatidylinositol (PI) turnover in vitro, UCll or SKLKB82#3 cells, statements not split by receptor", "format": "cell-based", "method": "as §3, with “min. Buffer was removed and Krebs-Henseleit buffer (containing 40 μg/ml bacitracin, 4 μg/ml each of leupeptin and chymostatin, 0.1% bovine serum albumin and 10 mM each of thiorphan and LiCl) including the test compound is added. After 15 min, SP was added to UCll cells or NKA to SKLKB82#3 cells at various concentrations to start the reaction. After incubation for 60 min at room temperature the reaction was terminated by addition of 930 μl chloroform: methanol (1:2 by volume) to each tube, followed by 310 μl chloroform and 310 μl doubly distilled water.” for “min.”\nas §4, with “program. Data is expressed as percent stimulation of total inositol phosphate accumulation over basal levels and normalized to the maximum response produced by SP.” for “program.”"}}}
{"smiles": "COC(=O)[C@H](Cc1c[nH]c2ccccc12)NCCN[C@@H](Cc1ccc2ccccc2c1)C(=O)N(C)Cc1ccccc1OC", "note": "[Compound No. 1]", "values": [{"measurement": "IC50", "setting": "[1]", "result": 0.0257, "unit": "µM"}, {"measurement": "-slope (Schild analysis), NK1 receptor", "setting": "[2]", "result": 1.28}, {"measurement": "pA2, tachykinin-induced PI turnover, NK1 receptor", "setting": "[2]; Schild analysis", "result": 7.34}, {"measurement": "-slope (Schild analysis), NK2 receptor", "setting": "[3]", "result": 1.11}, {"measurement": "pA2, tachykinin-induced PI turnover, NK2 receptor", "setting": "[3]; Schild analysis", "result": 6.70}, {"measurement": "IC50", "setting": "[4]", "result": 0.609, "unit": "µM"}, {"measurement": "slope of the lines obtained by a Schild analysis versus one", "setting": "[5]; Schild analysis, 3 experiments", "result": "not significantly different from one (1)"}, {"measurement": "PI turnover when administered by itself (agonist activity)", "setting": "[5]; compound alone, no tachykinin agonist", "result": "no PI turnover"}, {"measurement": "mode of antagonism", "setting": "[5]; from Schild analysis slope", "result": "competitive antagonist"}]}
